The text below walks through data of patent US6555134B1, “Synergistic mixtures of garlic and lycopene for preventing LDL oxidation” (Lycored Natural Products Industries Ltd., priority 1998, dated 2003).

The subject of one assay is Cultured rat hepatocytes. Conditions: cited from earlier work.
A further assay addresses T1, fatty acid synthetase (Rattus norvegicus, UniProt P12785).
T1 construct: Cultured rat hepatocytes; host or cells: primary rat hepatocyte cultures
Conditions: at very high concentration; cited from earlier work.

The test system of a further assay is LDL. In words: copper ions-induced LDL oxidation (TBARS, lipids). The format is biochemical, human. Conditions: Experiment 1; lycopene 5 μg/ml. As for the experimental part:
LDL was separated from human plasma by discontinuous density gradient ultracentrifugation and dialyzed against saline: EDTA (1 mM). Before oxidation LDL was diluted in PBS to 100 ug protein/ml, and dialyzed overnight against PBS at 4° C. LDL was oxidized by a metal ion dependent mechanism, by incubation for 24 hours at 37° C. with 5 uM CuSO4 freshly prepared as well as by determination of the thiobarbituric acid reactive substance (TBARS). Lycopene, as well as tomato oleoresin containing 5% lycopene, were dissolved in tetrahydrofuran (THF), 0.5 mg/ml stock solution for pure lycopene, and 10 mg/ml stock solution for the oleoresin. Garlic powder was extracted with water, dried, and resolubilized in water at a concentration of 0.25 mg of allicin equivalentsml for a stock solution. The synergistic effects of a combination of garlic and lycopene on copper ions-induced LDL oxidation was studied. Details are shown in Table 1, affording the individual components of the Abbott Equation used to calculate synergism as follows: [formula] where A=Percent Control of garlic alone B=Percent Control of Lycopene alone where IF=Actual control in Percent IE=Expected control in Percent Following the method of Experiment 1, the synergistic effect of a combination of garlic and lycopene as in Experiment 1; but using tomato oleoresin was run.

Another assay deals with blood lymphocytes. Particulars: NO2 radical damage; cited from earlier work.

Where two headings read alike, the source gives them in different places. Marks after values point to notes of the source that are not given here.

T1 sequence (P12785 whole entry): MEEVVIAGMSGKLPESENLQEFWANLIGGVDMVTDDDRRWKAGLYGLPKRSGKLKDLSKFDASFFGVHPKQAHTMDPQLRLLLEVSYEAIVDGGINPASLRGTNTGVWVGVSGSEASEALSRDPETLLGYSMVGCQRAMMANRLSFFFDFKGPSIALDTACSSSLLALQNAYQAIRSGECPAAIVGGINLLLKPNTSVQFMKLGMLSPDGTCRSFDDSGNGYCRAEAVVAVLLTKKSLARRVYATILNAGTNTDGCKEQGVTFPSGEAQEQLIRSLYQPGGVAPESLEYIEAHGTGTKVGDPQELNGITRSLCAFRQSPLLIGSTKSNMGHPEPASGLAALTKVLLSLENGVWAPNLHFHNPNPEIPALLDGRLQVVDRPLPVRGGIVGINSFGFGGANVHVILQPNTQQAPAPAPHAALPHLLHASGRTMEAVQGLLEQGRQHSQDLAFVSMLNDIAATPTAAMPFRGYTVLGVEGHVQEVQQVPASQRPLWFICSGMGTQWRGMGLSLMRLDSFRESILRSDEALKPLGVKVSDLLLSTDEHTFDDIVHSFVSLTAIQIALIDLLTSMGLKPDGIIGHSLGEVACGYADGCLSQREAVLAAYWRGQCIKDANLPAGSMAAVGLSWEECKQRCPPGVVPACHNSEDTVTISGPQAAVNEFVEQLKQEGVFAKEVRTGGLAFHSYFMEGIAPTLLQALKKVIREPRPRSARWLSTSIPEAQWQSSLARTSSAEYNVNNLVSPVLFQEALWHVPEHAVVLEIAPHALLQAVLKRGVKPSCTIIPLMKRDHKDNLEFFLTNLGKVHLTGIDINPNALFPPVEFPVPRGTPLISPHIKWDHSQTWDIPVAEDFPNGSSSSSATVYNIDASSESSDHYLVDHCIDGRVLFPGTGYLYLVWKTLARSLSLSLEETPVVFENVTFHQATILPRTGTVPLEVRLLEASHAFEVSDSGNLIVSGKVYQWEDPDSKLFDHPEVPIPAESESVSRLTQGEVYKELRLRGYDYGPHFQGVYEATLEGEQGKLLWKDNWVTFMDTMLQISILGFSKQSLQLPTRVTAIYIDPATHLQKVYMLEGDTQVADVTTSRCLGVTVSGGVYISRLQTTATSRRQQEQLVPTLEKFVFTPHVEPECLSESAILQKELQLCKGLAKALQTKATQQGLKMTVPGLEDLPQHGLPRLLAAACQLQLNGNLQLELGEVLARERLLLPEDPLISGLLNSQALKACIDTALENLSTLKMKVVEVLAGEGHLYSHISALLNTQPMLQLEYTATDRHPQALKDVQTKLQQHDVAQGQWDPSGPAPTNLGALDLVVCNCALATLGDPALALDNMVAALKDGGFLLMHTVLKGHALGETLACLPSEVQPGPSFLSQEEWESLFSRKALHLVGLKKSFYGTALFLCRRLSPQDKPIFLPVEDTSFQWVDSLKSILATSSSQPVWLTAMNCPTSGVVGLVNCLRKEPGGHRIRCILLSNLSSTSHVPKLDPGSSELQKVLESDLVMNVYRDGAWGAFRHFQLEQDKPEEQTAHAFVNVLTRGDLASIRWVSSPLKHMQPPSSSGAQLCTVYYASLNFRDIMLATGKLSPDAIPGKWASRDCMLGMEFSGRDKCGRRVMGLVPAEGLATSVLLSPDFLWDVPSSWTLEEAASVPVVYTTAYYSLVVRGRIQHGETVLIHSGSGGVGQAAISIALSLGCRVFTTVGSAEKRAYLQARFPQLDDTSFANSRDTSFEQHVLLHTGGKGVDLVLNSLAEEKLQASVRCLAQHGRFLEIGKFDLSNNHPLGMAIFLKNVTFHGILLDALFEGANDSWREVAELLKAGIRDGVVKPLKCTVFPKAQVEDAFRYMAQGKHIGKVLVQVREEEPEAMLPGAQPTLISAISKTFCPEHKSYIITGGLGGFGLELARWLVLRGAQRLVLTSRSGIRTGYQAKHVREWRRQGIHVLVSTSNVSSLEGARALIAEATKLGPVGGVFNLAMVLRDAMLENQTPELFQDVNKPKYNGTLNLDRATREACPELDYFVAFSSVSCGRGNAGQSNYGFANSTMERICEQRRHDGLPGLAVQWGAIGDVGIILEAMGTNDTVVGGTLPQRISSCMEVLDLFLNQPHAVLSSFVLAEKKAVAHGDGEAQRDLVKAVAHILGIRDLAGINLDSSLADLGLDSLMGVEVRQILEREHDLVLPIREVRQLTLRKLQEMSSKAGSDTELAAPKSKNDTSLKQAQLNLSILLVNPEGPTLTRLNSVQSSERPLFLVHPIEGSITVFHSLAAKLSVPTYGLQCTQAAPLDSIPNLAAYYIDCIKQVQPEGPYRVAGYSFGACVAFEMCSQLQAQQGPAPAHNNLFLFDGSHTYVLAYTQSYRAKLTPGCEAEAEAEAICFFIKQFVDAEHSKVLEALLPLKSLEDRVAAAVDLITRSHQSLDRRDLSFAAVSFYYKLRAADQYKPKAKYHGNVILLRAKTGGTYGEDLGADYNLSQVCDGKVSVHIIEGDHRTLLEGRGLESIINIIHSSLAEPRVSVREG

Turning to `CC[C@H](C)C(=O)O[C@H]1CCC=C2C=C[C@H](C)[C@H](CC[C@@H]3C[C@@H](O)CC(=O)O3)[C@H]21` [Mevastatin], the “inhibition of cholesterol biosynthesis” value with Cultured rat hepatocytes (24 h incubation, radiolabeled acetate) is listed as 90%. Regarding `C=CCS[S+]([O-])CC=C` (centres unmarked) [allicin], in the assay with Cultured rat hepatocytes (concentration corresponding to its content in the extracts, before or after incubation with alliinase), the “inhibition of cholesterol biosynthesis” value is “does not exert any inhibition”. The “inhibition of fatty acid synthetase” value at fatty acid synthetase was “inhibited”.

Turning to `CC(C)=CCC/C(C)=C/C=C/C(C)=C/C=C/C(C)=C/C=C/C=C(C)/C=C/C=C(C)/C=C/C=C(\C)CCC=C(C)C` [Lycopene], the “B = Percent Control of Lycopene alone” value in the assay with LDL is listed as 18^b Percent. Also, in the assay with blood lymphocytes, the “antioxidant effectiveness relative to β-carotene” value is “at least twice as effective”.
